According to publication PMC11126936, “Reactivating Hippo by drug compounds to suppress gastric cancer and enhance chemotherapy sensitivity” (The Journal of Biological Chemistry, 2024):
Like-named read-outs stand apart in the source and are kept apart here.

Assays:
HGC-27 cells [1] = assay: Cell viability assay in HGC-27 cells; format: cell-based, human; details: for IC50: cell viability, read-out: IC50 values in HGC-27 cells
PP2Aa [2] = target: T1, PP2Aa (Homo sapiens, UniProt P30153); assay: ITC binding to PP2Aa; details: 25 °C
T1 construct: GST; made in house; host or cells: E. coli BL21 Codon plus (DE3)
T1 sequence (P30153 8-589): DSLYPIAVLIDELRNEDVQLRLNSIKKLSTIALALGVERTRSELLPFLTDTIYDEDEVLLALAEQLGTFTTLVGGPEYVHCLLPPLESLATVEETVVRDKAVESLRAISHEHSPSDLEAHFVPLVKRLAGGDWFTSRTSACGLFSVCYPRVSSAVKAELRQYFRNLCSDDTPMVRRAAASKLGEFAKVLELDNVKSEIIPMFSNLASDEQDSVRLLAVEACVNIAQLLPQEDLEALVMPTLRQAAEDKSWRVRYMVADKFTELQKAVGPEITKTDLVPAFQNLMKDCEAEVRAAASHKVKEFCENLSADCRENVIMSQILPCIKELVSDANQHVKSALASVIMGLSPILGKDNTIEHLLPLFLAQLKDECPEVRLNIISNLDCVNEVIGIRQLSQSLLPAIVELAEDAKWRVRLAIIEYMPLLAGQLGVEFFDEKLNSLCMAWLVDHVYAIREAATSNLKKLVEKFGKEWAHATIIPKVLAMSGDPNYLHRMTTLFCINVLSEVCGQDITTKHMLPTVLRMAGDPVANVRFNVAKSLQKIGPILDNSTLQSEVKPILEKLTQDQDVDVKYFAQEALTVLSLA
Description: (§1) ITC experiments were conducted using an iTC200 instrument from Microcal at 25 °C. […] Each titration included a single […] injection followed by 19 sequential injections of […] aliquots, with a spacing of 300 s between the injections, and stirring at 1000 rpm. Data were analyzed using the ITC data analysis software (MicroCal Software, https://www.malvernpanalytical.com/en/support/product-support/software/microcal-peaq-itc-analysis-software-v141).

STRN3 = target: T2, STRN3 (Homo sapiens, UniProt Q13033); assay: ITC binding to STRN3
T2 construct: His-SUMO; made in house; host or cells: E. coli BL21 Codon plus (DE3)
T2 sequence (Q13033 64-145): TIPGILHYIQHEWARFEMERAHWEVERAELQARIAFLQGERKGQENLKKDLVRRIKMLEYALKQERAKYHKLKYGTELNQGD
Description: as §1

PP2Aa [3] = target: T1, PP2Aa; assay: MST assay, binding to PP2Aa
mice = details: ref [65]; cited from earlier work
zebrafish larvae = details: ref [65], [66]; cited from earlier work
AGS cells xenograft = assay: AGS xenograft tumor model; details: intratumoral injection, five consecutive days, vs control
Description: Briefly, healthy male 615 mice were maintained in pathogen-free conditions. Mice were first injected with 2 × 10^6 AGS cells/per mouse into their flanks to induce tumor formation. Once the tumor volume reached about 100 mm^3, mice were injected intratumorally with indicted inhibitors for five successive days. Two weeks later, the mice were euthanized and then their tumors were harvested and weighed.

MNNG-induced GC tumors = assay: MNNG-induced GC mouse model; details: 50 mg/kg per day DSF vs control mice
[4] = test system: YAP target gene CTGF in HGC-27 cells; assay: CTGF mRNA (qPCR) in HGC-27 cells; details: 48 h
HGC-27 cells [5] = assay: Colony formation assay in HGC-27 cells; details: about 2 weeks
Description: After about 2 weeks incubation, cell colonies were identified by their being stained with 1% crystal violet dye. And colonies with diameters of >1 mm were counted.

PP2Aa–STRN3 interaction [6] = target: T3, PP2Aa–STRN3 interaction (Homo sapiens, UniProt P30153); assay: Co-IP of HA-PP2Aa and Flag-STRN3 in HEK293A cells; format: cell-based; set-up: expressed in transfected cells; host or cells: HEK293A
Target sequence in this assay (P30153 whole entry): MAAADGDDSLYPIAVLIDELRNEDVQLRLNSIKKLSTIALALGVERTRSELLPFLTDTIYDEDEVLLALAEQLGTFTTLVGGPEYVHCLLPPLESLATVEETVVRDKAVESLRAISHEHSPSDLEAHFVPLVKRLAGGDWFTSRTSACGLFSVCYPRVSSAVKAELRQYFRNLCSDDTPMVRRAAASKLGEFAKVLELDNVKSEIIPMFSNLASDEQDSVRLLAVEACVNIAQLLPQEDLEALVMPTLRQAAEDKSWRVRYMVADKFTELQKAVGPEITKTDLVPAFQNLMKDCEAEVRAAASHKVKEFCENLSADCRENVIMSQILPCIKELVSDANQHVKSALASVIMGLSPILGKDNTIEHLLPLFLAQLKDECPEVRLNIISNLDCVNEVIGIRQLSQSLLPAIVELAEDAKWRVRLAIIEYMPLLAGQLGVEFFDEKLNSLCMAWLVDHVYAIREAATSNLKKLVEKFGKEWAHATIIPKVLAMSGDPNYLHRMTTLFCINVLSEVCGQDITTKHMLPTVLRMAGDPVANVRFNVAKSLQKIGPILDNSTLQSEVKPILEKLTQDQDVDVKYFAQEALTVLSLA

GES-1 cells = assay: Cell viability of non-cancerous gastric epithelial GES-1 cells; details: Homo sapiens, GES1, read-out: IC50 value, GES-1 cells
PP2Aa–STRN3 interaction [7] = target: T3, PP2Aa–STRN3 interaction; assay: GST pulldown assay, PP2Aa–STRN3; format: binding; set-up: GST; SUMO; made in house; host or cells: E. coli BL21 Codon plus (DE3); details: recombinant GST-PP2Aa and His-Sumo-STRN3; up to 10 μM compound
Target sequence in this assay (P30153 8-589): as the sequence (P30153 8-589) above

YAP phosphorylation = details: HEK293A, Flag-YAP

SMILES: CCN(CC)C(=S)SSC(=S)N(CC)CC [DSF, disulfiram]
- IC50 (HGC-27 cells [1]; listed as Disulfiram): 0.39 µM
- IC50 (HGC-27 cells [1]): < 5 µM
- effect of addition of copper ion on suppression of HGC-27 cell viability by the compound (HGC-27 cells [1]; compound-Cu complex vs compound): further dramatically enhanced
- Kd (PP2Aa [2]): 4.1 µM
- binding to STRN3 (STRN3): can specifically bind to PP2Aa but not STRN3
- Kd (PP2Aa [3]): 4.9 µM
- effect on binding of STRN3 to PP2Aa (PP2Aa [3]; compound added): readily disrupted the binding of STRN3 to PP2Aa
- in vivo side effects in mice (mice): reduction of body weight and glucose excretion
- adverse effects in zebrafish larvae (zebrafish larvae): adverse effects
- tumor weight / tumor growth (AGS cells xenograft): modestly lower tumor weights
- Ctgf expression in tumors (RNA-Scope) (MNNG-induced GC tumors): sharp decrease
- area of tumors (MNNG-induced GC tumors): substantially smaller
- mRNA levels of YAP target gene CTGF [4]: significantly reduced
- colony formation of HGC-27 cells (HGC-27 cells [5]): significantly inhibited colony formation
- PP2Aa–STRN3 interaction in Co-IP (PP2Aa–STRN3 interaction [6]): dramatically decreased
- IC50 (GES-1 cells): 1.29 µM
- PP2Aa–STRN3 association in GST pulldown (PP2Aa–STRN3 interaction [7]): dramatically reduced
- level of pYAP^Ser (YAP phosphorylation): dose-dependently increased
- level of pYAP^Tyr (YAP phosphorylation): marginal effect
